These results are taken from ChEMBL document CHEMBL4261644, “Novel Symmetrical Benzazolyl Derivatives Endowed with Potent Anti-Heparanase Activity” (J Med Chem, 2018).

Assay [1] deals with HT-1080. Put plainly: Anti-invasive activity in human HT1080 cells assessed as reduction in invasive potential at 1 uM after 24 hrs by matrigel invasion assay relative to control. The class given is functional. As to conditions: HT-1080, 24 h.
Assay [2] has as its target T1, Heparanase (Homo sapiens) (UniProt Q9Y251).
T1 sequence (whole entry): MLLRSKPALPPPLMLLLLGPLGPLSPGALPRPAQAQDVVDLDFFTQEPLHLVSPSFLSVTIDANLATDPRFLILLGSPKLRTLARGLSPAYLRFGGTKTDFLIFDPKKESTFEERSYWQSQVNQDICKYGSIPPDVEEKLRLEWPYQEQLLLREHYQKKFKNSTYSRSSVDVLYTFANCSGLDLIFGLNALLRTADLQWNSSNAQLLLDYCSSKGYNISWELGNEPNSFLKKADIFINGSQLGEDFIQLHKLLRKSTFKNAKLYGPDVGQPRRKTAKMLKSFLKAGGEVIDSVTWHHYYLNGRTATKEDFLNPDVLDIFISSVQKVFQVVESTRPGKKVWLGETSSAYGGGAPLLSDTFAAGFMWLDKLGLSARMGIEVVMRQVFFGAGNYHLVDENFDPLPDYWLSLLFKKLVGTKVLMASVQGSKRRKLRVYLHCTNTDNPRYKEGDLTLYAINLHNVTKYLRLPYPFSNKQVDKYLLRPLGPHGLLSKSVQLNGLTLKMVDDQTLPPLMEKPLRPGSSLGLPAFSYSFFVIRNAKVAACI
As to the kind of experiment: Inhibition of HPSE in human HT1080 cells assessed as reduction in HPSE mRNA expression after 24 hrs by qPCR analysis relative to control. It is filed as cell-based. For orientation: In qPCR the cycle at which signal appears reflects the starting amount.

Assay [3] deals with U-87 MG. Put plainly: Anti-invasive activity in human U87MG cells assessed as reduction in invasive potential at 1 uM after 24 hrs by matrigel invasion assay relative to control. The class given is functional, U-87MG ATCC.
In assay [4] the test system is U-87 MG. Put plainly: Antiproliferative activity against human U87MG cells after 72 hrs by SRB assay. To be noted: Homo sapiens, U-87 MG, 72 h; read-out: IC50. The class given is cell-based, U-87MG ATCC.
Assay [5] deals with U2OS. Put plainly: Antiproliferative activity against human U2OS cells after 72 hrs by SRB assay. It is filed as cell-based. As to conditions: Homo sapiens, U2OS, 72 h; read-out: IC50.
Assay [6] deals with HT-1080. Put plainly: Antiproliferative activity against human HT1080 cells after 72 hrs by SRB assay. To be noted: Homo sapiens, HT-1080, 72 h; read-out: IC50. It is filed as cell-based. On the technique in general: Sulforhodamine B stains cellular protein and so reports cell mass.
Assay [7] has as its system U2OS. As to the kind of experiment: Anti-invasive activity in human U2OS cells assessed as reduction in invasive potential at 1 uM after 24 hrs by matrigel invasion assay relative to control. It is filed as functional.
Assay [8] concerns the target T1, Heparanase (Homo sapiens). Put plainly: Inhibition of HPSE in human HT1080 cells assessed as reduction in VEGF mRNA expression after 24 hrs by qPCR analysis relative to control. It is filed as cell-based.
For assay [9], the target named is T1, Heparanase (Homo sapiens). As to the kind of experiment: Inhibition of HPSE in human HT1080 cells assessed as reduction in FGF2 mRNA expression after 24 hrs by qPCR analysis relative to control. It is filed as cell-based.
Assay [10] deals with T1, Heparanase (Homo sapiens). Put plainly: Inhibition of HPSE in human HT1080 cells assessed as reduction in FGF1 mRNA expression after 24 hrs by qPCR analysis relative to control. It is filed as cell-based.
Assay [11] concerns the target T1, Heparanase (Homo sapiens). As to the kind of experiment: Inhibition of HPSE in human HT1080 cells assessed as reduction in MMP9 mRNA expression after 24 hrs by qPCR analysis relative to control. The class given is cell-based.

Active and inactive are the calls of the source. The rule behind the calls is not given here.

The inhibition is the change of the read-out against control, counted positive when it falls. The term IC50 denotes the concentration that gives 50% inhibition.

In the case of `COc1ccc(C(=O)Nc2ccc(CNc3ccc(-c4nc5cc(CC(=O)O)ccc5[nH]4)cc3F)cc2)cc1Br`, the inhibition at 1 µM in the assay with HT-1080 [1], with U-87 MG [3] and with U2OS [7] was 50 to 90% throughout. In addition, the inhibition result in assay [2], in [8], in [9], in assay [10] and in assay [11] was “Active” throughout. The figures for the IC50 in the assay on U-87 MG [4], with U2OS [5] and in the assay with HT-1080 [6] were 2800 nM, 1700 nM and 8700 nM, respectively.
